# Experimental data from patent US20250049829A1, “NOVEL T[…] TARGETING THE H-RAS ISOFORM WITH G12D MUTATION INVOLVED IN CANCER FORMATION” (ISTANBUL MEDIPOL UNIVERSITESI, priority 2021, published 2025).
# Target: T1, interaction of H-RASG12D with RAF (Homo sapiens, UniProt P01112, G12D)
# T1 construct: expressed in transfected cells; host or cells: HEK-293T
# Assay: Active RAS pull-down (GST-Raf-RBD) and western blot in HRASG12D-overexpressing HEK-293T cells
# Assay type: cell-based
# Settings: for active RAS levels: 293T-HRASG12D cells, pull-down with RAF, western blot
# Description: The candidate molecules determined as a result of molecular dynamics studies were applied to HEK-293T cells at different concentrations in order to determine the cytotoxic and optimum doses for the cells. Optimum dose ranges were determined for each molecule. HEK-293T/HRASG12D cells were treated with Cerubidine […], one of these candidate molecules, and active RAS was examined due to the interaction of RAS protein in cells with RAF. In experiments carried out on this molecule; lysate was collected at different time points from cells treated with non-toxic concentrations of Cerubidine. Active RAS precipitation (Pull Down) and subsequent Western-blot experiments performed on these lysates were used to investigate the effect of Cerubidine molecule on active RAS at different time points for 12 hours in terms of G12D mutation specificity.
# In the said study, HEK-293T cells with high expression of RAS proteins carrying the G12D mutation were used to examine the effect of candidate ligands on the interaction of H-RASG12D with RAF. First of all, an “Active Ras Pull-Down and Detection Kit (Thermo)” was provided to detect the interaction of the active RAS protein with RAF, and therefore the active RAS proteins involved in this interaction. Since the working principle of the kit is based on the precipitation of RAS proteins interacting with RAF, immunoprecipitation experiments were performed accordingly, since the use of the kit within the scope of this experiment was suitable for the target.
# The isolated proteins were first treated with GTPyS and GDP, and then bound to the glutathione-containing column with GST-Raf-RBD. Then, the presence of the RAS protein was examined by western blot experiment in the samples collected by elution from the column.
# Then, established 293T-HRAS^G12D cells were treated with Cerubudine, one of the candidate molecules, at different doses (non-cytotoxic), and active RAS proteins were precipitated in the presence of RAF in the lysates collected from cells, following the kit protocol validated in FIG. 5. Then, active RAS, HRAS and RAS^G12D levels were analyzed by western blot at different time points.
# Here, HRASG12D overexpressed cell lines (HEK-293T/HRAS^G12D) were treated with increasing doses of Cerubudine and lysate was obtained for protein isolation at different time points (0.5 h, 1 h, 3 h, 12 h). Active RAS precipitation was performed using isolated proteins and RAS, RASG12D and HRAS protein levels were examined by Western blot. Within the scope of the results obtained, there was a decrease in active RAS protein levels depending on the dose increase, especially in the 12th hour treated samples. Cerubidine treatment in cell lines overexpressing HRASG12D reduced the interaction of active RAS protein with RAF.
compound,measurement,setting,value
"COc1cccc2c1C(=O)c1c(O)c3c(c(O)c1C2=O)C[C@@](O)(C(C)=O)C[C@@H]3O[C@H]1C[C@H](N)[C@H](O)[C@H](C)O1 [Cerubidine, cerubidine]",reduction in G12D mutant HRAS versus wild type HRAS levels,"5 μM and 10 μM, western blot for active RAS, HRAS and RASG12D",not wild type HRAS levels
same,active RAS levels,5 μM,significant decrease
same,active RAS levels,10 μM,significant decrease
same,"effect on active RAS levels, dose and time of strongest effect","10 μM, at the end of 12 hours",most pronounced effect
same,interaction of active RAS protein with RAF,cell lines overexpressing HRASG12D,reduced
same,active RAS protein levels depending on the dose increase,"increasing doses, 12th hour treated samples, HEK-293T/HRASG12D",decrease
same,mutant specificity of decrease in active RAS levels (G12D specific antibody),membrane with G12D specific antibody,mutant specific
